Source: US20250115620A1, “BRIDGED TRICYCLIC CARBAMOYLPYRIDONE COMPOUNDS AND USES THEREOF” (Gilead Sciences, Inc., priority 2022, published 2025)
Where two headings read alike, the source gives them in different places.

Experiments:
HIV-1 (IIIB) = test: microbe, parasite or virus in culture; format: cell-based; conditions: Human immunodeficiency virus 1, IIIB, MT4, 120 h, read-out: MT4 EC50
pLAI reporter virus = test: microbe, parasite or virus in culture; format: cell-based, HIV; conditions: Human immunodeficiency virus 1, MT4, 72 h
in vitro = conditions: human, uninfected MT-4 cells
[1] = HIV-1 (IIIB) in MT-4 cells, 5 days incubation, Cell Titer Glo

SMILES	EC50 (HIV-1 (IIIB); [1]) [nM]	EC50 (pLAI reporter virus; read-out: RLUC 50% HS EC50) [nM]	EC50 (pLAI reporter virus; read-out: RLUC CCM EC50) [nM]	CC50 at 5 days (in vitro) [nM]	EC50 (HIV-1 (IIIB)) [nM]
CC1=NO[C@]2(CC[C@H](C)N3C[C@H]2n2cc(C(=O)NCc4ccc(F)cc4F)c(=O)c(O)c2C3=O)C1C (stereo partly drawn) [Example 23, (3′S,5R,7′R)—N-(2,4-difluorobenzyl)-12′-hydroxy-3,3′,4-trimethyl-1′,11′-dioxo-1′,4′,5′,11′-tetrahydro-3′H,4H,7′H-spiro[isoxazole-5,6′-[2,7]methanopyrido[1,2-a][1,4]diazonine]-10′-carboxamide]	1.2	0.9	0.5	≥ 50000	
C[C@H]1CC[C@]2(COC(F)(F)O2)[C@H]2CN1C(=O)c1c(O)c(=O)c(C(=O)NCc3c(F)cc(F)cc3F)cn12 [Example 141, (3′S,4R,7′R)-2,2-difluoro-12′-hydroxy-3′-methyl-1′,11′-dioxo-N-(2,4,6-trifluorobenzyl)-1′,4′,5′,11′-tetrahydro-3′H,7′H-spiro[[1,3]dioxolane-4,6′-[2,7]methanopyrido[1,2-a][1,4]diazonine]-10′-carboxamide]	0.9	263	0.2	30400	
COCCOC1=NO[C@@]2(CC[C@H](C)N3C[C@H]2n2cc(C(=O)NCc4c(F)cc(F)cc4F)c(=O)c(O)c2C3=O)C1 [Example 38, (3′S,5S,7′R)-12′-hydroxy-3-(2-methoxyethoxy)-3′-methyl-1′,11′-dioxo-N-(2,4,6-trifluorobenzyl)-1′,4′,5′,11′-tetrahydro-3′H,4H,7′H-spiro[isoxazole-5,6′-[2,7]methanopyrido[1,2-a][1,4]diazonine]-10′-carboxamide]	1.2	1.5	0.3	22100	
C[C@H]1CC[C@]2(CC(CC(F)(F)F)=NO2)[C@H]2CN1C(=O)c1c(O)c(=O)c(C(=O)NCc3c(F)cc(F)cc3F)cn12 [Example 9]	0.8	146	0.5	10200	
CCN1C[C@@]2(CC[C@H](C)N3C[C@H]2n2cc(C(=O)NCc4c(F)cc(F)cc4F)c(=O)c(O)c2C3=O)OC1=O [Example 63, (3′S,5R,7′R)-3-ethyl-12′-hydroxy-3′-methyl-1′,2,11′-trioxo-N-(2,4,6-trifluorobenzyl)-1′,4′,5′,11′-tetrahydro-3′H,7′H-spiro[oxazolidine-5,6′-[2,7]methanopyrido[1,2-a][1,4]diazonine]-10′-carboxamide]	45.9	15.5	11.1	≥ 50000	
COC1=NO[C@@]2(CC[C@H](C)N3C[C@H]2n2cc(C(=O)NCc4c(F)cc(F)cc4F)c(=O)c(O)c2C3=O)[C@H]1F [Example 87, (3′S,4R,5R,7′R)-4-fluoro-12′-hydroxy-3-methoxy-3′-methyl-1′,11′-dioxo-N-(2,4,6-trifluorobenzyl)-1′,4′,5′,11′-tetrahydro-3′H,4H,7′H-spiro[isoxazole-5,6′-[2,7]methanopyrido[1,2-a][1,4]diazonine]-10′-carboxamide]	1.2	31.8	0.2	10500	
C[C@H]1CC[C@]2(CC(=O)NO2)[C@H]2CN1C(=O)c1c(O)c(=O)c(C(=O)NCc3c(F)cc(F)cc3F)cn12 [Example 101, (3′S,5S,7′R)-12′-hydroxy-3′-methyl-1′,3,11′-trioxo-N-(2,4,6-trifluorobenzyl)-1′,4′,5′,11′-tetrahydro-3′H,7′H-spiro[isoxazolidine-5,6′-[2,7]methanopyrido[1,2-a][1,4]diazonine]-10′-carboxamide]	98.1	408	34	≥ 50000	
C[C@H]1CC[C@]2(CC(C#CC(C)(C)S(C)(=O)=O)=NO2)[C@H]2CN1C(=O)c1c(O)c(=O)c(C(=O)NCc3c(F)cc(F)cc3F)cn12 [Example 79, (3′S,5S,7′R)-12′-hydroxy-3′-methyl-3-(3-methyl-3-(methylsulfonyl)but-1-yn-1-yl)-1′,11′-dioxo-N-(2,4,6-trifluorobenzyl)-1′,4′,5′,11′-tetrahydro-3′H,4H,7′H-spiro[isoxazole-5,6′-[2,7]methanopyrido[1,2-a][1,4]diazonine]-10′-carboxamide]	4.8	1.4	1	≥ 50000	
C[C@H]1CC[C@]2(COCCO2)[C@H]2CN1C(=O)c1c(O)c(=O)c(C(=O)NCc3c(F)cc(F)cc3F)cn12 [Example 139, (2R,3′S,7′R)-12′-hydroxy-3′-methyl-1′,11′-dioxo-N-(2,4,6-trifluorobenzyl)-1′,4′,5′,11′-tetrahydro-3′H,7′H-spiro[[1,4]dioxane-2,6′-[2,7]methanopyrido[1,2-a][1,4]diazonine]-10′-carboxamide]	1.4	83.7	0.1	30900	
COC1=NO[C@@]2(CC[C@@H](C)N3C[C@H]2n2cc(C(=O)NCc4c(F)cc(F)cc4F)c(=O)c(O)c2C3=O)C1 [Example 97, (3′R,5S,7′R)-12′-hydroxy-3-methoxy-3′-methyl-1′,11′-dioxo-N-(2,4,6-trifluorobenzyl)-1′,4′,5′,11′-tetrahydro-3′H,4H,7′H-spiro[isoxazole-5,6′-[2,7]methanopyrido[1,2-a][1,4]diazonine]-10′-carboxamide]	2.5	1.8	0.5	10400	
C[C@H]1CC[C@]2(CC(=O)N(Cc3nc4ccccc4n3C)O2)[C@H]2CN1C(=O)c1c(O)c(=O)c(C(=O)NCc3c(F)cc(F)cc3F)cn12 [Example 163, (3′S,5S,7′R)-12′-hydroxy-3′-methyl-2-((1-methyl-1H-benzo[d]imidazol-2-yl)methyl)-1′,3,11′-trioxo-N-(2,4,6-trifluorobenzyl)-1′,4′,5′,11′-tetrahydro-3′H,7′H-spiro[isoxazolidine-5,6′-[2,7]methanopyrido[1,2-a][1,4]diazonine]-10′-carboxamide]	1.5	2	0.9	≥ 50000	
CCC1=NO[C@@]2(CC[C@H](C)N3C[C@H]2n2cc(C(=O)NCc4c(F)cc(F)cc4F)c(=O)c(O)c2C3=O)O1 [Example 93, (3′S,5R,7′R)-3-ethyl-12′-hydroxy-3′-methyl-1′,11′-dioxo-N-(2,4,6-trifluorobenzyl)-1′,4′,5′,11′-tetrahydro-3′H,7′H-spiro[[1,4,2]dioxazole-5,6′-[2,7]methanopyrido[1,2-a][1,4]diazonine]-10′-carboxamide]	0.7	622	0.2	13600	
C[C@H]1CC[C@]2(CC(N(C)C)=NO2)[C@H]2CN1C(=O)c1c(O)c(=O)c(C(=O)NCc3c(F)cc(F)cc3F)cn12 [Example 52, (3′S,5S,7′R)-3-(dimethylamino)-12′-hydroxy-3′-methyl-1′,11′-dioxo-N-(2,4,6-trifluorobenzyl)-1′,4′,5′,11′-tetrahydro-3′H,4H,7′H-spiro[isoxazole-5,6′-[2,7]methanopyrido[1,2-a][1,4]diazonine]-10′-carboxamide]		6.2	0.3	27000	0.9
C[C@H]1CC[C@]2(CC(n3cccn3)=NO2)[C@H]2CN1C(=O)c1c(O)c(=O)c(C(=O)NCc3c(F)cc(F)cc3F)cn12 [Example 77, (3′S,5S,7′R)-12′-hydroxy-3′-methyl-1′,11′-dioxo-3-(1H-pyrazol-1-yl)-N-(2,4,6-trifluorobenzyl)-1′,4′,5′,11′-tetrahydro-3′H,4H,7′H-spiro[isoxazole-5,6′-[2,7]methanopyrido[1,2-a][1,4]diazonine]-10′-carboxamide]	2.9	17.7	0.5	1480	
C[C@H]1CC[C@]2(CC(C#N)=NO2)[C@H]2CN1C(=O)c1c(O)c(=O)c(C(=O)NCc3ccc(F)cc3F)cn12 [Example 42, (3′S,5S,7′R)-3-cyano-N-(2,4-difluorobenzyl)-12′-hydroxy-3′-methyl-1′,11′-dioxo-1′,4′,5′,11′-tetrahydro-3′H,4H,7′H-spiro[isoxazole-5,6′-[2,7]methanopyrido[1,2-a][1,4]diazonine]-10′-carboxamide]	≥ 100	550	157	≥ 50000	
COC1=NO[C@]2(CC[C@H](C)N3C[C@H]2n2cc(C(=O)NCc4c(F)cc(F)cc4F)c(=O)c(O)c2C3=O)C1 [Example 37, (3′S,5R,7′R)-12′-hydroxy-3-methoxy-3′-methyl-1′,11′-dioxo-N-(2,4,6-trifluorobenzyl)-1′,4′,5′,11′-tetrahydro-3′H,4H,7′H-spiro[isoxazole-5,6′-[2,7]methanopyrido[1,2-a][1,4]diazonine]-10′-carboxamide]	1.6	8.3	0.7	49900	
CCC1=NO[C@@]2(CC[C@H](C)N3C[C@H]2n2cc(C(=O)NCc4c(F)cc(F)cc4F)c(=O)c(O)c2C3=O)C1 [Example 67, (3′S,5S,7′R)-3-ethyl-12′-hydroxy-3′-methyl-1′,11′-dioxo-N-(2,4,6-trifluorobenzyl)-1′,4′,5′,11′-tetrahydro-3′H,4H,7′H-spiro[isoxazole-5,6′-[2,7]methanopyrido[1,2-a][1,4]diazonine]-10′-carboxamide]	1.3	190	0.3	20000	
C[C@H]1CC[C@]2(CC(CF)=NO2)[C@H]2CN1C(=O)c1c(O)c(=O)c(C(=O)NCc3ncc(F)c(Cl)c3F)cn12 [Example 66, (3′S,5S,7′R)—N-((4-chloro-3,5-difluoropyridin-2-yl)methyl)-3-(fluoromethyl)-12′-hydroxy-3′-methyl-1′,11′-dioxo-1′,4′,5′,11′-tetrahydro-3′H,4H,7′H-spiro[isoxazole-5,6′-[2,7]methanopyrido[1,2-a][1,4]diazonine]-10′-carboxamide]	3.9	561	0.8	30100	
